In PubChem BioAssay AID1918933 (Molecular Pharmacology Branch, DTP, NCI, 2023):
Values joined by “and” are separate entries in the source; they are usually repeats but may differ in a detail not shown here. Equal values may be shown once.

Tested on: 186277-243-T-J2-PDC complex spheroid viability
Assay: Anticancer human tumor 186277-243-T-J2-PDC patient-derived colon adenocarcinoma cell line growth inhibition
Conditions: for viability, T/C: stronger effect = lower value
Summary of the method: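 Complex spheroids of tumor cells with HUVEC and human MSCs, exposed to iadademstat combined with other agents. Each agent tested in half-log steps from near clinical Cmax (else 10 microM top), DMSO ≤0.25%.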
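Note: 7 day exposure to compounds.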
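Throughout, for viability, T/C: 100% = DMSO vehicle control viability.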

Compound: CC(C)CC(NC(=O)C(Cc1ccccc1)NC(=O)c1cnccn1)B(O)O (configuration not stated) + NC1CCC(NC2CC2c2ccccc2)CC1
- IC50 (curve of first compound, second compound 0.1 µM): 3.72 nM
- IC50 (curve of first compound, second compound 0.316 µM): 3.94 nM
- IC50 (curve of first compound, second compound 1 µM): 3.67 nM
- IC50 (curve of first compound, second compound 3.16 µM): 4.54 nM
- IC50 (curve of first compound, second compound 10 µM): 3.95 nM
- viability, T/C (second compound 0.1 µM, first compound 0.000316 µM): 103%
- viability, T/C (second compound 0.1 µM, first compound 0.001 µM): 107%
- viability, T/C (second compound 0.1 µM, first compound 0.00316 µM): 58.1%
- viability, T/C (second compound 0.1 µM, first compound 0.01 µM): 0.46%
- viability, T/C (second compound 0.1 µM, first compound 0.0316 µM): 0.13%
- viability, T/C (second compound 0.1 µM, first compound 0.1 µM): 0.28%
- viability, T/C (second compound 0.316 µM, first compound 0.000316 µM): 113%
- viability, T/C (second compound 0.316 µM, first compound 0.001 µM): 107%
- viability, T/C (second compound 0.316 µM, first compound 0.00316 µM): 61.5%
- viability, T/C (second compound 0.316 µM, first compound 0.01 µM): 0.8%
- viability, T/C (second compound 0.316 µM, first compound 0.0316 µM): 0.31%
- viability, T/C (second compound 0.316 µM, first compound 0.1 µM): 0.65%
- viability, T/C (second compound 1 µM, first compound 0.000316 µM): 111%
- viability, T/C (second compound 1 µM, first compound 0.001 µM): 107%
- viability, T/C (second compound 1 µM, first compound 0.00316 µM): 57.4%
- viability, T/C (second compound 1 µM, first compound 0.01 µM): 0.43%
- viability, T/C (second compound 1 µM, first compound 0.0316 µM): 0.44%
- viability, T/C (second compound 1 µM, first compound 0.1 µM): 0.16%
- viability, T/C (second compound 3.16 µM, first compound 0.000316 µM): 107%
- viability, T/C (second compound 3.16 µM, first compound 0.001 µM): 124%
- viability, T/C (second compound 3.16 µM, first compound 0.00316 µM): 72.7%
- viability, T/C (second compound 3.16 µM, first compound 0.01 µM): 0.98%
- viability, T/C (second compound 3.16 µM, first compound 0.0316 µM): 0.25%
- viability, T/C (second compound 3.16 µM, first compound 0.1 µM): 0.11%
- viability, T/C (second compound 10 µM, first compound 0.000316 µM): 111%
- viability, T/C (second compound 10 µM, first compound 0.001 µM): 98.5%
- viability, T/C (second compound 10 µM, first compound 0.00316 µM): 62%
- viability, T/C (second compound 10 µM, first compound 0.01 µM): 0.43%
- viability, T/C (second compound 10 µM, first compound 0.0316 µM): 0.16%
- viability, T/C (second compound 10 µM, first compound 0.1 µM): 0.43%

Compound: Nc1ncn(C2CC(O)C(CO)S2)c(=O)n1 (configuration not stated)
- viability, T/C (compound 0.000949 µM): 109% and 96.1%
- viability, T/C (compound 0.003 µM): 118% and 104%
- viability, T/C (compound 0.00949 µM): 99.9% and 109%
- viability, T/C (compound 0.03 µM): 83.4% and 99.1%
- viability, T/C (compound 0.0949 µM): 37.5% and 53.4%
- viability, T/C (compound 0.3 µM): 11.7% and 12%
- IC50 (curve of compound): 69.6 nM and 104 nM
